Measured values: ChEMBL document CHEMBL6096628, “Discovery of a Highly Potent and Selective BRD9 PROTAC Degrader Based on E3 Binder Investigation for the Treatment of Hematological Tumors” (J Med Chem, 2024)
Active and inactive are the calls of the source. The calls are words filed in the database; no cut-off is given here.

How the values were obtained:
SU-DHL-6 = assay: Antiproliferative activity against human SU-DHL-6 cells assessed as inhibition of cell growth incubated for 7 days by MTS reagent based assay; format: functional; details: SU-DHL-6, 168 h
[1] = biological target: T1, Protein cereblon/Bromodomain-containing protein 9 (Homo sapiens, UniProt Q9H8M2+Q96SW2); assay: PROTAC activity at CRBN/BRD9 in human MV4-11 cells assessed as induction of BRD9 degradation at 0.33 nM by Western blot analysis relative to control; format: cell-based; details: time 0.5-24 hrs
T1 sequence (Q96SW2 whole entry, looked up): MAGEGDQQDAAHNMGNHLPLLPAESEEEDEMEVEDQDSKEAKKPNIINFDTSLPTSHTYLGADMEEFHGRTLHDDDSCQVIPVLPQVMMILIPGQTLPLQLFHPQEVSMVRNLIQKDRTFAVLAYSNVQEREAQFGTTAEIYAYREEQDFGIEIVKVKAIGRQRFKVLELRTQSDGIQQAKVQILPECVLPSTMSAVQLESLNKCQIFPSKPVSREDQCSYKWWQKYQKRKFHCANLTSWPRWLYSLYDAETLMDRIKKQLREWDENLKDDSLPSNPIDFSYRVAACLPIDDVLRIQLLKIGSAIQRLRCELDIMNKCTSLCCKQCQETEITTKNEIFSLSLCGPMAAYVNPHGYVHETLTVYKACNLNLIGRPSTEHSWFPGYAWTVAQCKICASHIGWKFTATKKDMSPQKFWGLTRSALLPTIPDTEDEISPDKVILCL
T1 sequence (Q9H8M2 whole entry, looked up): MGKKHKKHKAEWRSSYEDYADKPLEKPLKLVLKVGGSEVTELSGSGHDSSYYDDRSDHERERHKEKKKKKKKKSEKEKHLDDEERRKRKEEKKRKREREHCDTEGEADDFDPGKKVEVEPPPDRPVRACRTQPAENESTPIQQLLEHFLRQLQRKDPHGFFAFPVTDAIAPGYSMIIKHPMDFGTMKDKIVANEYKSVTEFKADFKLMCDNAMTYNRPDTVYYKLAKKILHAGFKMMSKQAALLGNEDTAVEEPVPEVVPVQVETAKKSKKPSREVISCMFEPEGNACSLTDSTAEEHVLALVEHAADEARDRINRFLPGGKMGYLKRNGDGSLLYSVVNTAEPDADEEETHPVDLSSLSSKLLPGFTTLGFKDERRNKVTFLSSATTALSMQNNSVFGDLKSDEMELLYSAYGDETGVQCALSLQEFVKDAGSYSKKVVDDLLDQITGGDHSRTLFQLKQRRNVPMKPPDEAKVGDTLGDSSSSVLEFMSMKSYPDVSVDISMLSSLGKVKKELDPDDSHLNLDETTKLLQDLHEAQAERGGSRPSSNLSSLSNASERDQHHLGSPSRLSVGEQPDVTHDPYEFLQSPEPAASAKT

MV4-11 [2] = assay: Downregulation of CELF1 protein expression in human MV4-11 cells by proteomic analysis; format: functional, cell-based
[3] = biological target: T1, Protein cereblon/Bromodomain-containing protein 9; assay: PROTAC activity at CRBN/BRD9 in human MV4-11 cells assessed as induction of BRD9 degradation at 0.33 nM in presence of MLN4924 by Western blot analysis; format: cell-based
MV4-11 [4] = assay: Downregulation of beta-catenin mRNA expression level in human MV4-11 cells at 0.1 to 10 nM measured after 24 to 48 hrs by Western blot analysis; format: functional, cell-based; details: dose 0.1-10 nM, time 24-48 hrs
[5] = biological target: T1, Protein cereblon/Bromodomain-containing protein 9; assay: PROTAC activity at CRBN/BRD9 in human MV4-11 cells assessed as induction of BRD9 degradation at 1 nM by Western blot analysis relative to control; format: cell-based
MV4-11 [6] = assay: Antiproliferative activity against CRBN knockout human MV4-11 cells assessed as inhibition of cell growth incubated for 7 days by MTS reagent based assay; format: functional; details: MV4-11, 168 h
MV4-11 [7] = assay: Antitumor activity against human MV4-11 cells xenografted in Balb/c nude mouse assessed as tumor growth inhibition at 20 mg/kg, ip administered once daily for 20 days relative to control; format: functional; details: MV4-11, 480 h, time 20 day, read-out: TGI
MOLM-13 = assay: Antiproliferative activity against human MOLM-13 cells assessed as inhibition of cell growth incubated for 7 days by MTS reagent based assay; format: functional; details: MOLM-13, 168 h
MV4-11 [8] = assay: Downregulation of KHDC4 protein expression in human MV4-11 cells by proteomic analysis; format: functional, cell-based
MV4-11 [9] = assay: Downregulation of AXIN2 mRNA expression level in human MV4-11 cells at 0.1 to 10 nM measured after 24 to 48 hrs by qPCR analysis; format: functional, cell-based; details: dose 0.1-10 nM, time 24-48 hrs
[10] = Cytotoxicity against PBMC cells (unknown origin) assessed as inhibition of cell growth at 5000 nM incubated for 7 days by MTS reagent based assay; format: toxicity; details: 168 h, 5 µM, time 7 day
MV4-11 [11] = assay: Upregulation of C-myc expression level in human MV4-11 cells at 0.1 to 10 nM measured after 24 to 48 hrs by Western blot analysis; format: functional, cell-based; details: dose 0.1-10 nM, time 24-48 hrs
[12] = biological target: T1, Protein cereblon/Bromodomain-containing protein 9; assay: PROTAC activity at CRBN/BRD9 in human MV4-11 cells assessed as induction of BRD9 degradation by measuring maximal efficacy by Western blot analysis relative to control; format: cell-based
[13] = Toxicity in Balb/c nude mouse xenografted with human MV4-11 cells assessed as behavioral abnormalities at 20 mg/kg, ip administered once a day for 20 days; format: organism-based; details: in vivo, 480 h, time 20 day
SU-DHL-2 = assay: Antiproliferative activity against human SU-DHL-2 cells assessed as inhibition of cell growth incubated for 7 days by MTS reagent based assay; format: functional; details: SU-DHL-2, 168 h
U-937 = assay: Antiproliferative activity against human U-937 cells assessed as inhibition of cell growth incubated for 7 days by MTS reagent based assay; format: functional; details: U-937, 168 h
MV4-11 [14] = assay: Antitumor activity against human MV4-11 cells xenografted in Balb/c nude mouse assessed as tumor volume at 20 mg/kg, ip administered once daily for 20 days (reference value: 1187 +/- 449 mm^3); format: functional; details: time 20 day
Mus musculus = assay: Upregulation of BRD4 expression in Balb/c nude mouse tumor xenografted with human MV4-11 cells at 20 mg/kg, ip administered once daily for 20 days by Western blot analysis; format: functional, organism-based; details: time 20.0 day
MV4-11 [15] = assay: Induction of apoptosis in human MV4-11 cells assessed as late apoptotic cells at 10 nM incubated for 48 hrs by Annexin V-FITC/PI staining based flow cytometric analysis (reference value: 0.91 %); format: functional
MV4-11 [16] = assay: Induction of apoptosis in human MV4-11 cells assessed as necrotic cells at 0.1 nM incubated for 48 hrs by Annexin V-FITC/PI staining based flow cytometric analysis (reference value: 0.07 %); format: functional
[17] = biological target: T1, Protein cereblon/Bromodomain-containing protein 9; assay: PROTAC activity at CRBN/BRD9 in human MV4-11 cells assessed as induction of BRD9 degradation at 0.33 nM in presence of pomalidomide by Western blot analysis; format: cell-based
MV4-11 [18] = assay: Induction of apoptosis in human MV4-11 cells assessed as early apoptotic cells at 0.1 nM incubated for 48 hrs by Annexin V-FITC/PI staining based flow cytometric analysis (reference value: 4.22 %); format: functional
MV4-11 [19] = assay: Induction of apoptosis in human MV4-11 cells assessed as early apoptotic cells at 0.01 nM incubated for 48 hrs by Annexin V-FITC/PI staining based flow cytometric analysis (reference value: 4.22 %); format: functional
[20] = Toxicity in Balb/c nude mouse xenografted with human OCI-Ly10 cells assessed as mortality at 30 mg/kg, po administered once daily for 18 days; format: organism-based; details: in vivo, 432 h, time 18 day
[21] = Toxicity in Balb/c nude mouse xenografted with human OCI-Ly10 cells assessed as effect on body weight at 30 mg/kg, po administered once daily for 18 days; format: organism-based; details: in vivo, 432 h, time 18 day
MV4-11 [22] = assay: Induction of apoptosis in human MV4-11 cells assessed as late apoptotic cells at 1 nM incubated for 48 hrs by Annexin V-FITC/PI staining based flow cytometric analysis (reference value: 0.91 %); format: functional
MV4-11 [23] = assay: Induction of apoptosis in human MV4-11 cells assessed as late apoptotic cells at 0.1 nM incubated for 48 hrs by Annexin V-FITC/PI staining based flow cytometric analysis (reference value: 0.91 %); format: functional
MV4-11 [24] = assay: Antitumor activity against human MV4-11 cells xenografted in Balb/c nude mouse assessed as relative tumor volume at 20 mg/kg, ip administered once daily for 20 days (reference value: 7.85 +/- 3.69); format: functional; details: time 20 day
OCI-Ly10 [25] = assay: Antitumor activity against human OCI-Ly10 cells xenografted in Balb/c nude mouse assessed as relative tumor volume at 30 mg/kg, po administered once daily for 18 days (reference value: 9.07 +/- 4.66); format: functional; details: time 18 day
MV4-11 [26] = assay: Induction of apoptosis in human MV4-11 cells assessed as viable cells at 1 nM incubated for 48 hrs by Annexin V-FITC/PI staining based flow cytometric analysis (reference value: 94.80 %); format: functional; details: read-out: Activity
[27] = biological target: T1, Protein cereblon/Bromodomain-containing protein 9; assay: PROTAC activity at CRBN/BRD9 in human MV4-11 cells assessed as induction of BRD9 degradation at 0.33 nM in presence of MG132 by Western blot analysis; format: cell-based
OCI-Ly10 [28] = assay: Antitumor activity against human OCI-Ly10 cells xenografted in Balb/c nude mouse assessed as test to control ratio at 30 mg/kg, po administered once daily for 18 days relative to control; format: functional; details: time 18 day

Structure (SMILES): COc1cc(-c2cn(C)c(=O)c3ccccc23)cc(OC)c1CN1CCC(CN2CCC(c3ccc4c5c(cccc35)C(=O)N4C3CCC(=O)NC3=O)CC2)CC1 (stereo not drawn)
- IC50 (SU-DHL-6): 375 nM
- Activity [1]: Time-dependent-effect
- Activity (MV4-11 [2]): Active
- Activity [3]: Not active; Compound Functioned Through Ubiquitin-Proteasome System
- Activity (MV4-11 [4]): Active
- Activity [5]: 92.5%
- IC50 (MV4-11 [6]): > 5000 nM
- inhibition in vivo at 20 mg/kg (MV4-11 [7]): 30.9%
- IC50 (MOLM-13): 0.37 nM
- Activity (MV4-11 [8]): Active
- Activity (MV4-11 [9]): Active
- Activity [10]: Toxic
- Activity (MV4-11 [11]): Active
- Emax [12]: 97%
- Activity [13]: Non-toxic
- IC50 (SU-DHL-2): 38.6 nM
- IC50 (U-937): 1060 nM
- Activity (MV4-11 [14]): 766 mm3
- Activity (Mus musculus): Active
- Activity (MV4-11 [15]): 8.01%
- Activity (MV4-11 [16]): 0.03%
- Activity [17]: inactive
- Activity (MV4-11 [18]): 9.2%
- Activity (MV4-11 [19]): 6.35%
- Activity [20]: Non-toxic
- Activity [21]: Non-toxic
- Activity (MV4-11 [22]): 5.74%
- Activity (MV4-11 [23]): 3.37%
- Activity (MV4-11 [24]): 4.99
- Activity (OCI-Ly10 [25]): 4
- viability at 0.001 µM (MV4-11 [26]): 80.4%
- Activity [27]: Not active; Compound Functioned Through Ubiquitin-Proteasome System
- T/C (OCI-Ly10 [28]): ~40%
